≈ marks a conversion by molar mass, not a printed value. Where two headings read alike, the source gives them in different places.
Tests used:
[1] = test system: E. coli K12 knockout pool (BacPool) and wild type; assay: Prodrug screen, growth/no growth of BacPool knockout mix versus wild type; assay type: cell-based; conditions: compounds at about 46-50 μg/ml, OD600 after overnight incubation
Description: A complete, ordered E. coli K12 knockout library of 4320 genes and predicted ORFs (the Keio library) was used (Baba et al. (2006). Mol. Systems Biol. 2:2006.0008). The knockouts were constructed using the Wanner method with a kanamycin cassette replacing the ORFs (Datsenko et al. (2000) Proc. Natl. Acad. Sci. USA 97:6640-6645). All strains of this library were combined in a mix BacPool1) for screening. This permitted screening of the library against all strains simultaneously, instead of screening a full industry-size library against each of the individual E. coli 4×10^3 knockout strains.
The library mix was prepared by first culturing all strains overnight in LB medium, and then adding equal aliquots into a tube. This material was then mixed, dispensed in vials and stored at −80° C. For the screen, one vial was thawed, diluted to 10^5 cells/ml in LB, and dispensed into 384 well microtiter plates. The compounds were added from DMSO stocks at a final concentration of 46 μg/ml. The same compounds were added to plates containing the wild type isogenic control. Screening was performed at the Harvard NSRB/NERCE screening facility that host a collection of 150,000 compounds (see Tables 1A and 1B). All screens at NSRB/NERCE were performed in duplicate, which strongly decreases the rate of false positives and negatives. For each tested molecule there are three possible scenarios when scoring for growth/no growth:
Growth in both the BacPool and K12 wells: indicates lack of antimicrobial activity;
Growth inhibition in both the BacPool and K12 wells: a possible antibiotic (direct activity) or generally toxic compound is present, but is not a prodrug; or
Growth of a BacPool well and no growth of the K12 well: a prodrug hit.
After an overnight incubation of plates at 37° C., the plates were read at OD600. Compounds that had no effect on the growth of the mix and inhibited the growth of the wild type were recorded as hits. The wells with growth indicated a prodrug hit that is not converted into a drug by a particular deletion mutant in the mix. The mutant strain is then identified in a secondary screen (see Example 2).
Yet another screen was performed on 147,500 compounds, using the protocol described below. […]
An E. coli KanR culture was grown in LB broth containing 50 μg/ml Kanamycin for 20 hrs at 37° C. in a shaking incubator. […] The plates were then incubated for 20 hrs at 37° C., and then the plates were read for Optical Density at 600 nm and were scored for growth/no growth. […]
Hits were identified by calculating the % of inhibition of growth of E. coli measured by OD600. The data were analyzed as follows: negative controls (N), positive controls (P), and compounds (X) ODs were separately averaged and the resulting means were used to calculate % of inhibition of E. coli growth: […]

E. coli K12 = assay: Growth/no growth control wells (Z′-factor), OD600; assay type: cell-based
Method: The general procedure to establish the Z′-factor was tested. Since the output of the screening is a typical growth/no growth assay, this was performed by comparing growth in control wells to those containing a model antimicrobial, ciprofloxacin at 30 μg/ml. E. coli K12 were cultured in LB medium, and exponentially-growing cells were dispensed at 10^6/ml in 384-well microtiter plates, 30 μl/well. Six plates were used in this experiment. Ciprofloxacin was added to half of the wells (3 μl in LB, bringing the final volume to 33 μl). After an overnight incubation at 37 C, the OD600 of the plates were read, and the values of each well were used to calculate Z′-factor: Z′=1−(3SD++3SD−)/IAve+−Ave−I, where: SD+=positive control standard deviation; SD−=negative control standard deviation; Ave+=positive control average; and Ave−=negative control average). The following table for Z′-factor interpretation was used:
Before beginning the screen, a Z′-test was run. This was conducted by comparing growth in negative control wells to those with the prodrug AZT at 5 μg/ml. E. coli K12 cells were cultured in LB medium, and exponentially-growing cells were dispensed at 10^5/ml in 384-well microtiter plates, 30 μl/well. Four plates were used in this experiment. After an overnight incubation at 37° C., the OD600 of the plates were read, and the values of each well were used to calculate Z′-factor: […]

[2] = Schulz et al. (1997); cited from earlier work
P. aeruginosa [3] = assay: Killing of logarithmic, stationary and biofilm cultures, colony count; assay type: cell-based; conditions: for percentage of live cells: 5 μg/ml, 6 hrs
Method: Persister cells in planktonic and biofilm populations are characterized for their antibiotic sensitivity in this example. Several bactericidal antimicrobials were chosen to test the resistance of P. aeruginosa to killing—ofloxacin, a fluoroquinolone; tobramycin, an aminoglycoside; carbenicillin, a β-lactam; and peracetic acid, a disinfectant oxidant (Spoering et al. (2001) J. Bacteriol. 183:6746-6751). Biofilms were grown essentially by the method of Ceri (Ceri et al. (1999) J. Clin. Microbiol. 37:1771-1776) and as described in Brooun et al. (2000) Antimicrob. Agents Chemother. 44:640-646. The device used for biofilm formation is a platform carrying 96 polystyrene pegs that fit in a microtiter plate. Preformed biofilms were incubated in the presence of an antimicrobial agent, and survival was measured after disrupting the biofilms by colony count.
Logarithmic state, stationary and biofilm cultures were challenged with carbenicillin. Carbenicillin is a bactericidal antibiotic that, similarly to most β-lactams, only kills rapidly growing cells (Tuomanen et al. (1986) Scand. J. Gastroenterol. Suppl:10-14). […] The amount of killing of logarithmic cells approached a plateau at concentrations above 1.67×MIC, indicating the presence of a persister subpopulation. These 0.1% cells in the rapidly growing logarithmic culture were invulnerable to killing by carbenicillin at 600 μg/ml.
Unlike carbenicillin, ofloxacin can kill non-growing cells (Brooun et al. (2000) Antimicrob. Agents Chemother. 44:640-646). Logarithmic, stationary and biofilm cultures were challenged with ofloxacin over a wide range of concentrations, from 1×MIC (0.5 μg/ml) to 30×MIC (15 μg/ml). After a 6 hrs incubation time with the antibiotic, viability was determined by colony count. The majority of cells in the three populations examined were killed at low concentrations of ofloxacin (FIG. 3B). The killing in all three cultures was distinctly biphasic, indicating the presence of persister cells. The levels of persisters were dramatically higher in the dense stationary planktonic and biofilm cultures as compared to logarithmic cells. […] At 5 μg/ml ofloxacin, which is the clinically achievable concentration (Schulz et al. (1997) Pharmazie 52:895-911), the percentage of live cells was 0.001% in the logarithmic population, 0.1% in the biofilm and 2.5% in the stationary culture (FIG. 3B).
Tobramycin at 50 μg/ml (the maximal clinically achievable concentration is 10 μg/ml), (Schulz et al. (1997) Pharmazie 52:895-911) eliminated 90% of the biofilm cells, and the remaining population declined gradually with increasing amounts of the antibiotic. At high concentrations surviving persisters became apparent. Tobramycin was ineffective against stationary planktonic cells, apparently due to the dependence of killing of growth.
Peracetic acid, an oxidizing disinfectant, was used in order to test the ability of a sterilizing agent to act against persisters. […] Similar results showing biphasic killing, and high level of persisters in stationary and biofilm populations, also were obtained with S. aureus and E. coli (Keren et al. (2004) FEMS Microbiol. Lett. 230:13-18).

P. aeruginosa [4] = assay: MIC; assay type: cell-based; conditions: Pseudomonas aeruginosa; 1×MIC
[5] = test system: E. coli K12 Δactivating enzyme; assay: MIC, standard broth microdilution assay, deletion strains; assay type: cell-based; conditions: Escherichia coli, anaerobic conditions
Method: (§1) The ASKA strains of interest are validated for functional expression of the enzyme. If the protein is not expressed from a given expression vector the ORF is recloned. A strain overexpressing the activating enzyme from the ASKA library is then tested with the hit compound. If the hit has greater activity against this overexpressing strain as compared to the wild type, this indicates a prodrug. The test is performed in a standard broth microdilution assay for MIC determination. Hits with the lowest wild type MIC are then examined.
(§2) Cells were tested in a standard broth microdilution assay, inoculating 10^5 cells per well of a microtiter plate in LB broth. Overexpression and deletion strains were compared to the appropriate isogenic wild type. IPTG was added at 1 mM to growth medium. Experiments involving nfnB and nfsA strains were performed under anaerobic conditions.

E. coli K12 wt = assay: MIC, standard broth microdilution assay; assay type: cell-based; conditions: LB broth, 10^5 cells per well, 1 mM IPTG
Method: as §1, §2

[6] = test system: E. coli K12 overexpressing activating enzyme; assay: MIC, standard broth microdilution assay, overexpression strains; assay type: cell-based
Method: as §1, §2

[7] = test system: wild type bacterial strain (E. coli), stationary state; assay: Dose-dependent killing of stationary state cells, plating and colony count; assay type: cell-based; conditions: anaerobic, 6 hours incubation, biphasic killing
Method: FIG. 10 is a graphical representation of the dose-dependent killing of E. coli by metronidazole. Stationary phase cells grown in LB medium in the presence of 1 mM IPTG under anaerobic conditions were challenged for 6 hrs with increasing concentrations of metronidazole and then plated on LB agar plates.
The killing ability of metronidazole was examined. The wild type bacterial strain was grown to stationary state under anaerobic conditions, and dose-dependent killing after incubation with metronidazole for 6 hours was detected by plating and colony count (FIG. 10). […] This is the first observation of a sterilizing activity of an antibiotic against a stationary state bacterial population. Previously, it was only possible to kill persisters and sterilize an infection with peracetic acid (FIG. 2); (Spoering et al. (2001) J. Bacteriol. 183:6746-6751).

[8] = test system: strain overexpressing the activating enzyme, NfnB or NfsA; assay: as above; assay type: cell-based, E. coli; conditions: for sterilization of the population: nfnB^+ strain, limit of detection 6 logs of killing, <10 cells/ml
[9] = test system: E. coli K12 ΔtolC overexpressing activating enzyme; assay: MIC, standard broth microdilution assay, tolC deletion (MDR efflux); assay type: cell-based
Description: Prodrugs are activated by activating enzymes into reactive molecules that bind to their targets, creating an irreversible sink. This may lead to insensitivity of the overall process to MDR efflux. In order to test this possibility, an E. coli K12 with a deletion in tolC coding for the outer membrane porin that is a component of the transenvelope MDRs was utilized (Li (2004) Drugs 64:159-204). This strain is highly sensitive to antibiotics (Tegos et al. (2002) Antimicrob. Agents Chemother. 46:3133-3141). […] The substrate specificity of AcrAB is remarkably broad, and includes essentially all small molecular weight amphipathic compounds. The AcrAB substrates include anions (SDS, fatty acids, bile acids), neutral compounds (macrolides, chloramphenicol, tetracyclines) and cations or compounds that can form cations (acridine, quaternary compound antiseptics, fluoroquinolones). AcrAB can extrude a natural broad spectrum antibiotics that evolved for good penetration, chloramphenicol and tetracycline; and also extrude synthetic broad-spectrums, the fluoroquinolones.
as §2

SMILES: Cc1cn([C@H]2C[C@H](N=[N+]=[N-])[C@@H](CO)O2)c(=O)[nH]c1=O [zidovudine]
- screen outcome (prodrug hit / direct activity) [1]: prodrug hits
- inhibition of E. coli growth (E. coli K12; positive control at 5 μg/ml): complete inhibition

SMILES: CC1COc2c(N3CCN(C)CC3)c(F)cc3c(=O)c(C(=O)O)cn1c23 (stereo not shown) [ofloxacin]
- (maximal) clinically achievable concentration [2]: 5 µg/mL
- percentage of live cells (P. aeruginosa [3]; biofilm): 0.1%
- percentage of live cells (P. aeruginosa [3]; logarithmic population): 0.001%
- percentage of live cells (P. aeruginosa [3]; stationary culture): 2.5%
- MIC (P. aeruginosa [4]): 0.5 µg/mL (≈ 1.38 µM)

SMILES: Cc1ncc([N+](=O)[O-])n1CCO [Metronidazole]
- MIC ([5]; nfnB^− deletion strain): 1120 µg/mL (≈ 6570 µM)
- MIC ([5]; nfsA^− deletion strain): 2250 µg/mL (≈ 13100 µM)
- MIC (E. coli K12 wt; Escherichia coli, K12WT, read-out: MIC): > 500 µg/mL
- MIC (E. coli K12 wt): 563 µg/mL (≈ 3290 µM)
- sensitivity of the overexpression strain as compared to the wild type control ([6]; E. coli overexpressing NfnB): greater than 50 fold
- MIC ([6]; Escherichia coli): 8.8 µg/mL (≈ 51.4 µM)
- MIC ([6]; nfnB^+ overexpressing strain, 1 mM IPTG, anaerobic conditions): nfnB^+ 8.8 μg/ml
- MIC ([6]; nfsA^+ overexpressing strain, 1 mM IPTG, anaerobic conditions): nfsA^+ 8.8 μg/ml
- MIC ([6]; nfsA^+ overexpressing strain, 1 mM IPTG, anaerobic conditions, listed as metronidazole): 8.8 µg/mL (≈ 51.4 µM)
- tolerant persister cells [7]: about 1%
- sterilization of the population [8]: completely “sterilized”
- sterilization of the population ([8]; listed as metronidazole): complete sterilization
- surviving persisters ([8]; strain overexpressing NfnB or NfsA, stationary state, 6 hours): no surviving persisters were detected
- MIC ([9]; Escherichia coli): 8.8 µg/mL (≈ 51.4 µM)
- MIC ([9]; ΔtolC, nfsA^+ overexpressing strain): nfsA^+ 8.8 μg/ml

SMILES: NC[C@H]1O[C@H](O[C@H]2[C@H](O)[C@@H](O[C@H]3O[C@H](CO)[C@@H](O)[C@H](N)[C@H]3O)[C@H](N)C[C@@H]2N)[C@H](N)C[C@@H]1O [tobramycin]
- (maximal) clinically achievable concentration [2]: 10 µg/mL
- biofilm cells eliminated (P. aeruginosa [3]; biofilm, 50 μg/ml): 90%
- logarithmic persisters (P. aeruginosa [3]; logarithmic cells, 1 to 1500 μg/ml): no logarithmic persisters were detected
- killing of stationary cells (P. aeruginosa [3]; stationary planktonic cells): ineffective
- MIC (P. aeruginosa [4]): 1 µg/mL (≈ 2.14 µM)

SMILES: O=C(O)c1cn(C2CC2)c2cc(N3CCNCC3)c(F)cc2c1=O [ciprofloxacin]
- growth in wells with antibiotic (E. coli K12; 30 μg/ml, overnight at 37 C): no case of substantial growth
